The values below come from patent US8012987B2, “Indolo[2,1-b] quinazole-6,12-dione antimalarial compounds and methods of treating malaria therewith” (The United States of America as represented by the …, priority 1998, dated 2011).

Holding throughout (assay type): cell-based
Experiment [1] deals with Plasmodium falciparum clone CDC Sierra Leone I (D-6). The experiment in a line: In vitro inhibition of [3H]hypoxanthine uptake, P. falciparum D-6 clone. The note with it: Plasmodium falciparum, read-out: IC50 (D-6). Here is the method:
(§1) The in vitro assays were conducted by using a modification of the semiautomated microdilution technique of Desjardins et al.^11 and Chulay et al.^12 Two strains of Plasmodium falciparum clones, from CDC Indochina III (W-2), CDC Sierra Leone I (D-6). […] These solutions were subsequently serially diluted 2-fold with a Biomek 1000® (Beckman, Fullerton, Calif.) over 11 different concentrations. The parasites were exposed to serial dilutions of each compound for 48 h and incubated at 37° C. with 5% O2, 5% CO2, and 90% N2 prior to the addition of [^3H]hypoxanthine. […] Uptake of [^3H]hypoxanthine was measured with a Packard Topcount scintillation counter. […] The values without parentheses indicate culture in blood serum which more closely resemble conditions in a living animal.
(§2) The numbers associated with both W2 and D6 refer to IC50 values and the units are ng/ml.

The subject of experiment [2] is Plasmodium falciparum clone CDC Indochina III (W-2). The experiment in a line: In vitro inhibition of [3H]hypoxanthine uptake, P. falciparum W-2 clone. The note with it: Plasmodium falciparum, read-out: IC50 (W-2). The protocol:
as §1, §2

Experiment [3] relates to Plasmodium falciparum clone Thai TM90C2B. The experiment in a line: In vitro inhibition of [3H]hypoxanthine uptake, P. falciparum TM90C2B. The note with it: Plasmodium falciparum, TM90C2B, values without parentheses: blood serum (footnote: blood plasma) replacing Albumax. The protocol:
(§3) The in vitro assays were conducted by using a modification of the semiautomated microdilution technique of Desjardins et al.^11 and Chulay et al.^12 Two strains of Plasmodium falciparum clones, from CDC Indochina III (W-2), CDC Sierra Leone I (D-6). […] They were derived by direct visualization and micromanipulation from patient isolates.^13 Test compounds were initially dissolved in DMSO and diluted 400-fold in RPMI 1640 culture medium supplemented with 25 mM Hepes, 32 mM HaHCO3, and 10% Albumax I® (GIBCO BRL, Grand Island, N.Y.). These solutions were subsequently serially diluted 2-fold with a Biomek 1000® (Beckman, Fullerton, Calif.) over 11 different concentrations. The parasites were exposed to serial dilutions of each compound for 48 h and incubated at 37° C. with 5% O2, 5% CO2, and 90% N2 prior to the addition of [^3H]hypoxanthine. After a further incubation of 18 h, parasite DNA was harvested from each microtiter well using Packard Filtermate 196 Harvester® (Meriden, Conn.) onto glass filters. Uptake of [^3H]hypoxanthine was measured with a Packard Topcount scintillation counter. […] This procedure was repeated with the test compounds initially dissolved in DMSO and diluted 400-fold in RPMI 1640 culture medium supplemented with 25 mM Hepes, 32 mM HaHCO3, and with blood serum replacing the 10% Albumax I® (see Table 1, figures without parentheses). The values without parentheses indicate culture in blood serum which more closely resemble conditions in a living animal.
(§4) Four strains of Plasmodium falciparum clones, from CDC Indochina III (W-2), CDC Sierra Leone I (D-6), Thai WR75-TM9, and Thai TM90C2B were utilized in susceptibility testing and the IC50 results appear in Table 1.

For experiment [4], the system named is Plasmodium falciparum clone Thai WR75-TM9. Kind of experiment: In vitro inhibition of [3H]hypoxanthine uptake, P. falciparum WR75-TM9. As to conditions: Plasmodium falciparum, values without parentheses: blood serum (footnote: blood plasma) replacing Albumax. Here is the method: as §3, §4
The mark [5] stands for this setting: values in parentheses: culture medium with 10% Albumax I.
Setting [6] is: values without parentheses: blood serum (footnote: blood plasma) replacing Albumax.

Broadly, the IC50 is the point on the concentration scale where inhibition reaches its midpoint.

Converted amounts (≈) assume the structure as drawn. Read-outs that look alike come from different tables or passages of the source.

As to `CCOC(=O)c1ccc2c(c1)C(=O)c1nc3ncccc3c(=O)n1-2` [Example 24], the IC50 in experiment [1] (setting [5]) came out at 0.00201 µg/mL (≈ 0.00626 µM); in experiment [1] (setting [6]) it was 0.0101 µg/mL (≈ 0.0314 µM); in experiment [2] (setting [5]), 0.00091 µg/mL (≈ 0.00283 µM); in experiment [3] it was 0.00778 µg/mL (≈ 0.0242 µM).
As to `COc1cccc2c(=O)n3c(nc12)C(=O)c1cc(I)ccc1-3` [Example 27], the IC50 in experiment [1] (setting [5]) was found to be 0.00301 µg/mL (≈ 0.00745 µM); in experiment [2] (setting [5]), 0.00179 µg/mL (≈ 0.00443 µM); in experiment [3], 0.0411 µg/mL (≈ 0.102 µM).
With `O=C1c2cc(F)ccc2N2C(=O)c3ccccc3NC12` (centres unmarked) [Example 4], the IC50 in experiment [1] (setting [5]) turned out to be 0.00407 µg/mL (≈ 0.0152 µM); in experiment [1] (setting [6]) it was 0.0189 µg/mL (≈ 0.0704 µM); in experiment [2] (setting [5]) it was 0.00233 µg/mL (≈ 0.00869 µM); in experiment [2] (setting [6]), 0.0153 µg/mL (≈ 0.0572 µM); in experiment [3] it was 0.0298 µg/mL (≈ 0.111 µM).
For `Cc1ccc2nc3n(c(=O)c2c1)-c1ccc(F)cc1C3=O` [Example 11] the same measures were 0.0049 µg/mL (≈ 0.0175 µM), 0.0221 µg/mL (≈ 0.0787 µM), 0.0028 µg/mL (≈ 0.00999 µM), 0.0147 µg/mL (≈ 0.0524 µM) and 0.0164 µg/mL (≈ 0.0585 µM).
As for `O=C1c2cc(Cl)ccc2-n2c1nc1cc(F)ccc1c2=O` [Example 45], the IC50 in experiment [1] (setting [5]) worked out at 0.00128 µg/mL (≈ 0.00426 µM); in experiment [2] (setting [5]), 0.000728 µg/mL (≈ 0.00242 µM); in experiment [4], 0.0142 µg/mL (≈ 0.0471 µM).
Regarding `O=C1c2cc(Cl)ccc2-n2c1nc1cc(SCCO)ccc1c2=O` [Example 86], the IC50 amounted to 0.0036 µg/mL (≈ 0.01 µM) in experiment [1] (setting [5]); 0.00363 µg/mL (≈ 0.0101 µM) in experiment [1] (setting [6]); 0.0023 µg/mL (≈ 0.00641 µM) in experiment [2] (setting [5]); 0.00191 µg/mL (≈ 0.00532 µM) in experiment [2] (setting [6]); 0.00208 µg/mL (≈ 0.00579 µM) in experiment [3].
In the same order, the values of `O=C1c2cc(F)ccc2-n2c1nc1c(F)cccc1c2=O` [Example 19] are 0.00257 µg/mL (≈ 0.00904 µM), 0.0135 µg/mL (≈ 0.0476 µM), 0.00158 µg/mL (≈ 0.00556 µM), 0.00814 µg/mL (≈ 0.0286 µM) and 0.00978 µg/mL (≈ 0.0344 µM).
As to `O=C1c2cc(Cl)ccc2-n2c1nc1ccc(I)cc1c2=O` [Example 42], the IC50 in experiment [1] (setting [5]) came out at 0.0764 µg/mL (≈ 0.187 µM); in experiment [2] (setting [5]), 0.0632 µg/mL (≈ 0.155 µM).
In the same order, the values of `O=c1c2ccccc2nc2sc3ccccc3n12` [Example 2] are 12.5 µg/mL (≈ 49.5 µM) and 15.6 µg/mL (≈ 61.9 µM).
In the same order, the values of `CCCCCCCCc1ccc2c(c1)C(=O)c1nc3cc(N(C)CCO)ccc3c(=O)n1-2` [Example 72] are 7.86 µg/mL (≈ 18.1 µM) and 7.46 µg/mL (≈ 17.2 µM).
In the case of `O=C(N/N=C\c1ccc2c(c1)C(=O)c1nc3ccncc3c(=O)n1-2)c1ccncc1` [Example 88], the IC50 in experiment [1] (setting [5]) came out at 0.49 µg/mL (≈ 1.24 µM); in experiment [2] (setting [5]) it was 0.177 µg/mL (≈ 0.448 µM).
In the case of `COc1cccc2c(=O)n3c(nc12)/c(=C/c1ccccc1)c1cc(F)ccc13` [Example 75], the IC50 in experiment [1] (setting [5]) came to 0.534 µg/mL (≈ 1.44 µM); in experiment [2] (setting [5]), 0.573 µg/mL (≈ 1.55 µM).
Take `O=c1c2ccccc2nc2n1-c1ccccc1C21OCCO1` [Example 80]: the IC50 worked out at 7.97 µg/mL (≈ 27.3 µM) in experiment [1] (setting [5]) and 6.9 µg/mL (≈ 23.6 µM) in experiment [2] (setting [5]).
For `O=C1c2cc(Br)ccc2-n2c1nc1cnccc1c2=O` [Example 59], the IC50 in experiment [1] (setting [5]) is 0.00437 µg/mL (≈ 0.0133 µM); in experiment [1] (setting [6]), 0.0379 µg/mL (≈ 0.115 µM); in experiment [2] (setting [5]), 0.00247 µg/mL (≈ 0.00753 µM); in experiment [2] (setting [6]), 0.0177 µg/mL (≈ 0.054 µM); in experiment [3] it was 0.024 µg/mL (≈ 0.0732 µM).
As for `Cc1ncc2c(=O)n3c(nc2n1)C(=O)c1cc(I)ccc1-3` [Example 54], the IC50 in experiment [1] (setting [5]) amounted to 0.0746 µg/mL (≈ 0.191 µM); in experiment [2] (setting [5]), 0.124 µg/mL (≈ 0.318 µM).
With `O=C1c2cc(C3OCCCO3)ccc2-n2c1nc1ccncc1c2=O` [Example 77], the values for the IC50 in experiment [1] (setting [5]) and in experiment [2] (setting [5]) were 0.22 µg/mL (≈ 0.657 µM) and 0.165 µg/mL (≈ 0.493 µM), respectively.
For the molecule `O=C1c2cc(I)ccc2-n2c1nc1ncccc1c2=O` [Example 23], the IC50 in experiment [1] (setting [5]) is 0.00397 µg/mL (≈ 0.0106 µM); in experiment [2] (setting [5]), 0.00167 µg/mL (≈ 0.00445 µM).
In the same order, the values of `CN(CCOC(=O)CCC(=O)O)c1ccc2c(=O)n3c(nc2c1)C(=O)c1cc(Cl)ccc1-3` [Example 61] are 0.247 µg/mL (≈ 0.542 µM) and 0.187 µg/mL (≈ 0.41 µM).
In the same order, the values of `CCCCCCC(C)c1ccc2c(c1)C(=O)c1nc3ccncc3c(=O)n1-2` (centres unmarked) [Example 71] are 0.143 µg/mL (≈ 0.397 µM) and 0.12 µg/mL (≈ 0.332 µM).
With `CN1CCN(c2ccc3c(=O)n4c(nc3c2)C(=O)c2cc(F)ccc2-4)CC1` [Example 15], the values for the IC50 in experiment [1] (setting [5]) and in experiment [2] (setting [5]) were 0.126 µg/mL (≈ 0.345 µM) and 0.082 µg/mL (≈ 0.225 µM), respectively.
